# Data: patent US20120196828A1, “SENSITIZATION OF CANCER CELLS TO TREATMENT” (priority 2011, published 2012)
# Several values for one entry are separate records, joined by “and”; a condition that tells them apart may be missing. Identical values can stand only once.
# Tests used:
# [1] = system: BxPC-3 Human Pancreas Tumor Xenograft; experiment: BxPC-3 human pancreas tumor xenograft model: tumor weight and tumor growth inhibition; type: in vivo, mouse; conditions: for Day 26 Tumor Weight: mean ± Std Err, treatment administered until Day 26
# Description: Compounds tested in the experiment were as follows. […] A concentration of 4.8 mg/ml was formulated to deliver a 24 mg/kg dose at a 5 ml/kg dose volume when administered subcutaneously. […] Nab-paclitaxel was manufactured by Abraxis BioScience LLC (Bridgewater, N.J.) and diluted in a 0.9% NaCl solution to a concentration of 1.5 mg/ml to deliver 15 mg/kg, in a 10 ml/kg dose volume. All standard agent preparations were made fresh prior to their administration.
# BxPC-3 cells were obtained and prepared as follows. The BxPC-3 pancreas tumor cell line was received from American Type Culture Collection (ATCC, Manassas, Va.). Cultures were maintained in RPMI 1640 medium (Hyclone, Logan, Utah) supplemented with 5% fetal bovine serum. The cells were housed in a 5% CO2 atmosphere. The cultures were expanded in tissue culture flasks at a 1:3 split ratio until a sufficient amount of cells were harvested.
# (§1) All experiments were conducted on female athymic nude mice (Hsd:Athymic Nude-Foxn1nu) supplied by Harlan (Indianapolis, Ind.). Mice were received at four weeks of age, 12-15 grams in weight, and were acclimated for seven days prior to handling. The mice were housed in microisolator cages (Lab Products, Seaford, Del.) and maintained under specific pathogen-free conditions. All procedures were carried out under appropriate institutional guidelines for animal care.
# BxPC-3 Human Pancreas Tumor Xenograft Model: Female athymic nude mice per treatment condition were inoculated subcutaneously in the right flank with 0.1 ml of a 50% RPMI 1640/50% Matrigel™ (BD Biosciences, Bedford, Mass.) mixture containing a suspension of BxPC-3 tumor cells (approximately 5×10^6 cells/mouse).
# (§2) Seven days following inoculation, tumors were measured using calipers and tumor weight was calculated using the animal study management software, Study Director V.1.7.54 k (Study Log). See Britten C D, et al. Enhanced antitumor activity of 6-hydroxymethylacylfulvene in combination with irinotecan and 5-fluorouracil in the HT29 human colon tumor xenograft model. Cancer Res 59:1049-1053, 1999. […] Body weights were recorded when the mice were randomized and were taken twice weekly thereafter in conjunction with tumor measurements, on each of Days 1, 4, 8, 11, 15, 18, 22, 26, 30, 33, and 36.
# (§3) The study was terminated when the vehicle control reached an endpoint of 1500 mg, on Day 36.
# Mean tumor growth inhibition (TGI) was calculated utilizing Formula A below (deaths were not included in the TGI calculations).
# All statistical analyses in the xenograft study were performed with GraphPad Prism® v4 software.
# [2] = Body weight, deaths and clinical observations in the BxPC-3 xenograft study; conditions: for Starting Weight: baseline body weight, female athymic nude mice, BxPC-3 xenograft study
# Description: as §1, §2, §3
# anti-thrombin III = anti-thrombin III (Homo sapiens, UniProt P01008); conditions: cited from earlier work
# [3] = ANOVA with Tukey's Multiple Comparison Test
# [4] = Day 26, group mean, dosing per Table 1
# [5] = total deaths on or before Day 26, N = 10 per group
# anti-thrombin III, sequence (P01008 33-464, species assumed): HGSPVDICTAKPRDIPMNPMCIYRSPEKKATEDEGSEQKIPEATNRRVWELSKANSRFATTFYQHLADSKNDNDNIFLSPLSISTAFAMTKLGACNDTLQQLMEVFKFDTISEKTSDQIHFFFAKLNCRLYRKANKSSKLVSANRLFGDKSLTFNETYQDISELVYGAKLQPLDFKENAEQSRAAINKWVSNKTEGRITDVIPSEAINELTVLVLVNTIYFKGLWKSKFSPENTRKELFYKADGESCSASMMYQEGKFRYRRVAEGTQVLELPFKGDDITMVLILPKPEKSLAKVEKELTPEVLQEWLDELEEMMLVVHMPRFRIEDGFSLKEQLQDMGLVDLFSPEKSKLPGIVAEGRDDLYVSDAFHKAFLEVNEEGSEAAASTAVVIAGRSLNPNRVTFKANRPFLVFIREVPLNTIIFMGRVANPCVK
compound,measurement,setting,value
Nc1ccn([C@@H]2O[C@H](CO)[C@@H](O)C2(F)F)c(=O)n1 [Gemcitabine],Difference in tumor weight on Day 26 compared to vehicle control,[1]; [3],No significant difference
same,Difference in tumor weight on Day 36 compared to vehicle control,[1]; [3],No significant difference
same,"Mean tumor weight, Day 1","[1]; Day 1 (randomization), group mean, dosing per Table 1",124.3 mg
same,"Median tumor weight, Day 1","[1]; Day 1 (randomization), group median, dosing per Table 1",121.1 mg
same,"Tumor weight, individual mouse, Day 1","[1]; Day 1 (randomization), individual mouse, dosing per Table 1 (ODSH 24, oxaliplatin 10, gemcitabine 80, nab-paclitaxel 15 mg/kg)",132 mg and 139 mg and 126 mg and 104 mg and 107 mg and 111 mg and 116 mg and 166 mg and 146 mg and 96 mg
same,"Mean tumor weight, Day 4","[1]; Day 4, group mean, dosing per Table 1",152.5 mg
same,"Median tumor weight, Day 4","[1]; Day 4, group median, dosing per Table 1",140.2 mg
same,"Tumor weight, individual mouse, Day 4","[1]; Day 4, individual mouse, dosing per Table 1",189 mg and 214 mg and 126 mg and 122 mg and 131 mg and 133 mg and 146 mg and 176 mg and 155 mg and 135 mg
same,"Mean tumor weight, Day 8","[1]; Day 8, group mean, dosing per Table 1",162.2 mg
same,"Median tumor weight, Day 8","[1]; Day 8, group median, dosing per Table 1",147.4 mg
same,"Tumor weight, individual mouse, Day 8","[1]; Day 8, individual mouse, dosing per Table 1",193 mg and 282 mg and 129 mg and 130 mg and 125 mg and 161 mg and 175 mg and 180 mg and 134 mg
same,"Mean tumor weight, Day 11","[1]; Day 11, group mean, dosing per Table 1",198.2 mg
same,"Median tumor weight, Day 11","[1]; Day 11, group median, dosing per Table 1",191.0 mg
same,"Tumor weight, individual mouse, Day 11","[1]; Day 11, individual mouse, dosing per Table 1",235 mg and 328 mg and 146 mg and 145 mg and 119 mg and 150 mg and 202 mg and 242 mg and 234 mg and 180 mg
same,"Mean tumor weight, Day 15","[1]; Day 15, group mean, dosing per Table 1",263.8 mg
same,"Median tumor weight, Day 15","[1]; Day 15, group median, dosing per Table 1",259.2 mg
same,"Tumor weight, individual mouse, Day 15","[1]; Day 15, individual mouse, dosing per Table 1",319 mg and 375 mg and 211 mg and 218 mg and 181 mg and 228 mg and 245 mg and 288 mg and 300 mg and 274 mg
same,"Mean tumor weight, Day 18","[1]; Day 18, group mean, dosing per Table 1",332.1 mg
same,"Median tumor weight, Day 18","[1]; Day 18, group median, dosing per Table 1",340.1 mg
same,"Tumor weight, individual mouse, Day 18","[1]; Day 18, individual mouse, dosing per Table 1",413 mg and 379 mg and 258 mg and 267 mg and 224 mg and 269 mg and 441 mg and 376 mg and 389 mg and 304 mg
same,"Mean tumor weight, Day 22","[1]; Day 22, group mean, dosing per Table 1",459.4 mg
same,"Median tumor weight, Day 22","[1]; Day 22, group median, dosing per Table 1",451.9 mg
same,"Tumor weight, individual mouse, Day 22","[1]; Day 22, individual mouse, dosing per Table 1",621 mg and 514 mg and 372 mg and 400 mg and 350 mg and 332 mg and 592 mg and 509 mg and 500 mg and 404 mg
same,"Mean tumor weight, Day 26",[1]; [4],594.7 mg
same,"Median tumor weight, Day 26","[1]; Day 26, group median, dosing per Table 1",605.8 mg
same,"Tumor weight, individual mouse, Day 26","[1]; Day 26, individual mouse, dosing per Table 1",797 mg and 739 mg and 468 mg and 534 mg and 431 mg and 389 mg and 730 mg and 628 mg and 647 mg and 583 mg
same,Day 26 Tumor Weight,[1]; Day 26,594.7 ± 43.8 mg
same,"Mean tumor weight, Day 30","[1]; Day 30, group mean of surviving mice, dosing per Table 1",874.3 mg
same,"Median tumor weight, Day 30","[1]; Day 30, group median, dosing per Table 1",858.0 mg
same,"Tumor weight, individual mouse, Day 30","[1]; Day 30, individual mouse, dosing per Table 1","1,121 mg and 1,008 mg and 674 mg and 860 mg and 667 mg and 589 mg and 1,150 mg and 856 mg and 992 mg and 826 mg"
same,"Mean tumor weight, Day 33","[1]; Day 33, group mean of surviving mice, dosing per Table 1","1,044.2 mg"
same,"Median tumor weight, Day 33","[1]; Day 33, group median, dosing per Table 1","1,033.3 mg"
same,"Tumor weight, individual mouse, Day 33","[1]; Day 33, individual mouse, dosing per Table 1","1,367 mg and 1,132 mg and 878 mg and 1,036 mg and 936 mg and 624 mg and 1,275 mg and 1,030 mg and 1,158 mg and 1,008 mg"
same,Day 36 Tumor Weight,"[1]; Day 36, treatment administered until Day 35",1288.8 ± 74.3 mg
same,"Median tumor weight, Day 36","[1]; Day 36, group median, dosing per Table 1","1,306.7 mg"
same,"Tumor weight, individual mouse, Day 36","[1]; Day 36, individual mouse, dosing per Table 1","1,573 mg and 1,368 mg and 963 mg and 1,347 mg and 1,106 mg and 923 mg and 1,596 mg and 1,482 mg and 1,267 mg and 1,265 mg"
same,Day 36 % TGI,"[1]; Day 36 vs Day 1, relative to vehicle control (Group 1), deaths not included",16.8%
same,Day 1 Average Weight,[2],22.48 g
same,Day 4 Average Weight,[2]; Day 4,21.76 g
same,Day 8 Average Weight,[2]; Day 8,20.91 g
same,Day 11 Average Weight,[2],20.52 g
same,Day 15 Average Weight,[2],21.70 g
same,Day 18 Average Weight,[2]; Day 18,23.15 g
same,Day 22 % Weight Loss or Gain,"[2]; Day 22, vs starting weight",8.59%
same,Day 26 Average Weight,[2]; Table 13 Day 26,24.21 g
same,Day 26 % Weight Loss or Gain,"[2]; Table 13 Day 26, vs starting weight",7.70%
same,Starting Weight,[2],22.48 g
same,Maximum weight loss,[2]; body weight of mice,8.7%
same,Day 4 % Weight Loss or Gain,"[2]; mouse, in vivo",−3.20%
same,Day 8 % Weight Loss or Gain,"[2]; mouse, in vivo",−6.98%
same,Day 11 % Weight Loss or Gain,"[2]; mouse, in vivo",−8.72%
same,Day 15 % Weight Loss or Gain,"[2]; mouse, in vivo",−3.47%
same,Day 18 % Weight Loss or Gain,"[2]; mouse, in vivo",2.98%
same,Day 22 % Weight Loss or Gain,"[2]; mouse, in vivo",7.74%
same,Day 22 Average Weight,"[2]; mouse, in vivo",24.22 g
same,Day 26 % Weight Loss or Gain,"[2]; mouse, in vivo",7.96%
same,Day 26 Average Weight,"[2]; mouse, in vivo",24.27 g
same,Day 30 % Weight Loss or Gain,"[2]; mouse, in vivo",7.61%
same,Day by which the mice recovered their weight,"[2]; mouse, in vivo",≤ 18 days
same,Day on which maximum weight loss was reached,"[2]; mouse, in vivo",11 days
same,Deaths,[2]; [5],0
same,Deaths,"[2]; total deaths on or before Day 36, n = 10 per group",0
O=C1[O][Pt]2([NH][C@@H]3CCCC[C@H]3[NH]2)[O]C1=O [Oxaliplatin],Difference in tumor weight on Day 26 compared to vehicle control,[1]; [3],No significant difference
same,"Mean tumor weight, Day 26",[1]; [4],635.0 mg
same,Day 26 Tumor Weight,[1]; Day 26,635.0 ± 52.3 mg
same,Day 26 % TGI,"[1]; Day 26 vs Day 1, relative to vehicle control (Group 1), deaths not included",8.0% and 8.0 (10/10) %
same,Day 1 Average Weight,[2],20.82 g
same,Day 4 % Weight Loss or Gain,"[2]; Day 4, vs starting weight",−2.02%
same,Day 8 % Weight Loss or Gain,"[2]; Day 8, vs starting weight",−0.82%
same,Day 11 Average Weight,[2],20.12 g
same,Day 15 Average Weight,[2],20.81 g
same,Day 15 % Weight Loss or Gain,"[2]; Day 15, vs starting weight",−0.05%
same,Day 18 % Weight Loss or Gain,"[2]; Day 18, vs starting weight",−1.78%
same,Starting Weight,[2],20.82 g
same,Day bruising of the tails was first observed,"[2]; mouse, in vivo",11 days
same,Mice demonstrating bruising on the tails or abdomen (site of injection),[2]; of ten mice,One mouse
same,Deaths,[2]; [5],0
heparin,Kd,anti-thrombin III,1560 nM
same,Kd for anti-thrombin III,anti-thrombin III,22 µg/mL
